Assay [1] deals with T1, human A2B adenosine receptors (Homo sapiens, UniProt P29275).
T1 construct: expressed in transfected cells; host or cells: CHO cells (whole cells)
T1 sequence (P29275 1-332): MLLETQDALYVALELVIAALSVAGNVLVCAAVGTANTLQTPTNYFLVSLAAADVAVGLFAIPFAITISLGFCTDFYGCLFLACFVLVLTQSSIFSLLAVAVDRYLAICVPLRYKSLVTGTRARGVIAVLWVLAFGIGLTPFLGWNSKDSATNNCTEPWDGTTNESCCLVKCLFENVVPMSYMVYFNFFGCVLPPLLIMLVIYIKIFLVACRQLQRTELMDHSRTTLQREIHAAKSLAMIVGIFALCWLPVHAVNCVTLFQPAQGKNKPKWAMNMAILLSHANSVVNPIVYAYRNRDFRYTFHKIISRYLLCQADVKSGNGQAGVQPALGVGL
The assay is described as follows: cAMP assay in CHO cells expressing human A2B adenosine receptors (antagonism of NECA-induced cAMP). Format: cell-based. The conditions noted are these: antagonism of NECA (100 nM)-induced cAMP, geometric mean (95% confidence limits), read-out: IC50 hA2B (cAMP assay). Here is the method:
Measurement of Cyclic AMP Levels in CHO Cells Transfected with Human A2B Adenosine Receptors
CHO cells transfected with human A2B adenosine receptors are washed with phosphate-buffered saline, diluted trypsine and centrifuged for 10 min at 200 g. The pellet containing the CHO cells (1×10^6 cells/assay) is suspended in 0.5 mL of incubation mixture: NaCl 150 mM, KCl 2.7 mM, NaH2PO4 0.37 mM, MgSO4 1 mM, CaCl2 1 mM, Hepes 5 mM, MgCl2 10 mM, glucose 5 mM, pH 7.4 at 37° C. Then 2.0 IU/mL adenosine deaminase and 0.5 mM 4-(3-butoxy-4-methoxybenzyl)-2-imidazolidinone (Ro 20-1724) as phosphodiesterase inhibitor are added and preincubated for 10 min a shaking bath at 37° C. The potency of antagonists studied are determined by antagonism of NECA (100 nM)-induced stimulation of cyclic AMP levels. The reaction is terminated by the addition of cold 6% thrichloroacetic acid (TCA). The TCA suspension is centrifuged at 2000 g for 10 min at 4° C. and the supernatant is extracted four times with water saturated diethyl ether. The final aqueous solution is tested for cyclic AMP levels by a competition protein binding assay. Samples of cyclic AMP standard ([…]) are added to each test tube containing the incubation buffer (trizma base 0.1 M, aminophylline 8.0 mM, 2-mercaptoethanol 6.0 mM (pH 7.4) and [^3H]cyclic AMP in a total volume of 0.5 mL. The binding protein previously prepared from beef adrenals, is added to the samples previously incubated at 4° C. for 150 min, and after the addition of charcoal are centrifuged at 2000 g for 10 min. The clear supernatant is counted with 4 mL of Atomlight liquid scintillator and counted in a Tri Carb Packard 2500 TR scintillation counter.
(§1) The protein concentration is determined according to a Bio-Rad method (Bradford, Anal Biochem. 1976, 72: 248-254) with bovine albumin as a standard reference. Inhibitory binding constant, Ki, values are calculated from those of IC50 according to Cheng & Prusoff equation (Biochem. Pharmacol 1973, 22: 3099-3108): Ki=IC50/(1+[C*]/KD*) where [C*] is the concentration of the radioligand and KD* its dissociation constant. A weighted non linear least-squares curve fitting program LIGAND (Munson et al., Anal. Biochem 1980, 107: 220-239) is used for computer analysis of inhibition experiments Data are expressed as geometric mean with 95% confidence limits in parentheses. Examples of Animal Models
(cAMP levels reflect the balance of adenylyl cyclase and phosphodiesterase activity.)

Assay [2] addresses T2, human A2A adenosine receptors (Homo sapiens, UniProt P29274).
T2 construct: expressed in transfected cells; host or cells: CHO cells (membranes)
In words: Displacement of [3H]ZM241385 binding at human A2A adenosine receptors expressed in CHO cells. The conditions noted are these: [3H]ZM241385 displacement, n = 3-6, geometric mean (95% confidence limits), read-out: Ki hA2A. The method, then:
The human adenosine receptors have been transfected in CHO cells according with the method previously described by Klotz et al. (Naunyn-Schmied. Arch Pharm. 1998, 357: 1-9). Briefly, the cells are grown adherently and maintained in Dulbecco's Modified Eagles Medium with nutrient mixture F12 (DMEM/F12) without nucleosides, containing 10% fetal calf serum, penicillin (100 U/mL), streptomycin (100 μg/mL), L-glutamine (2 mM) and Geneticin (G418, 0.2 mg/ml) at 37° C. in 5% CO2/95% air. For membrane preparation the culture medium is removed and the cells are washed with phosphate-buffered saline and scraped off T75 flasks in ice-cold hypo tonic buffer (5 mM Tris HCl, 1 mM EDTA, pH 7.4). The cell suspension is homogenized with Polytron, the homogenate is spun for 10 min at 1000×g and the supernatant is then centrifuged for 30 min at 100,000×g. The membrane pellet is suspended in 50 mM Tris HCl buffer (pH 7.4) for A1 adenosine receptors, in 50 mM Tris HCl, 10 mM MgCl2 (pH 7.4) for A2A adenosine receptors, in 50 mM Tris HCl, 10 mM MgCl2, 1 mM EDTA (pH 7.4) for A2B and A3 adenosine receptors.
All new synthesized compounds have been tested to evaluate their affinity to human A1, A2A, A2B and A3 adenosine receptors. Displacement experiments of [^3H]-DPCPX to CHO cells transfected with the human recombinant A1 adenosine receptors are performed for 120 min at 25° C. incubating diluted membranes (50 μg of protein/assay) and at least 6-8 different concentrations of examined antagonists (Varani et al., Mol. Pharmacol., 2000, 57: 968-975). Non-specific binding is determined in the presence of 10 μM of CHA and this is always ≦10% of the total binding. Binding of [^3H]-ZM 241385 to CHO cells transfected with the human recombinant A2A adenosine receptors is performed using a suspension of membranes (50 μg of protein/assay) and at least 6-8 different concentrations of studied antagonists for an incubation time of 60 min at 4° C. Non-specific binding is determined in the presence of 1 μM ZM 241385 and is about 20% of total binding. Competition binding experiments of [^3H]-MRE 2029F20 to CHO cells transfected with the human recombinant A2B adenosine receptors are carried out incubating for 120 min at 4° C. diluted membranes (50 μg of protein/assay) and at least 6-8 different concentrations of examined compounds. Non-specific binding is defined as binding in the presence of 1 μM MRE 3029F20 and is about 25% of total binding. Competition binding experiments of [^3H]-MRE 3008F20 to CHO cells transfected with the human recombinant A3 adenosine receptors^5 are carried out incubating for 120 min at 4° C. diluted membranes (50 μg of protein/assay) and at least 6-8 different concentrations of examined ligands. Non-specific binding is defined as binding in the presence of 1 μM MRE 3008F20 and is about 25% of total binding. Bound and free radioactivity are separated by filtering the assay mixture through Whatman GF/B glass fiber filters using a Micro-Mate 196 cell harvester (Packard Instrument Co.). The filter bound radioactivity is counted on a Top Count (efficiency 57%) with Micro-Scint 20.
as §1
On the technique in general: Loss of bound radioactivity is the signal in a displacement assay; it reports binding, not function.

A value given as a limit tells only on which side of the number the result lay.

T2 sequence (P29274 whole entry): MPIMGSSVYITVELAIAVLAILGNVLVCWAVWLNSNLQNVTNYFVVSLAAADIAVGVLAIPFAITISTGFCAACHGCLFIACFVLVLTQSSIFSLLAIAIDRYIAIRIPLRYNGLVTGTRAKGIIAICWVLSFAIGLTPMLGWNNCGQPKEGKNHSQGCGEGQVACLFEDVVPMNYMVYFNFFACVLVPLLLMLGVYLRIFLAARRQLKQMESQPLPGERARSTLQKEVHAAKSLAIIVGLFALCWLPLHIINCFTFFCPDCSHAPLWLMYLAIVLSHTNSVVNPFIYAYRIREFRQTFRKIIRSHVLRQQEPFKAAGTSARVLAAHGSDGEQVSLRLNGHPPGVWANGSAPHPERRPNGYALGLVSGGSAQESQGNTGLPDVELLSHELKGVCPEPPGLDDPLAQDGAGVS

One may read the IC50 as the concentration at which inhibition is half-maximal. The term Ki denotes a dissociation constant, usually derived from enzyme kinetics or from competition with a known ligand. For `CCCn1c(=O)c2[nH]c(-c3cc(C)n(CC(=O)Nc4ccccc4)n3)nc2n(CCC)c1=O` [Example 1, 2-[3-(2,6-Dioxo-1,3-dipropyl-2,3,6,7-tetrahydro-1H-purin-8-yl)-5-methyl-pyrazol-1-yl]-N-phenyl-acetamide], in assay [1], the IC50 is 58 nM. Further, the Ki in assay [2] is over 1000 nM.

`CCCn1c(=O)c2[nH]c(-c3cc(C)n(CC(=O)Nc4ccc(I)cc4)n3)nc2n(CCC)c1=O` [Example 2, 2-[3-(2,6-Dioxo-1,3-dipropyl-2,3,6,7-tetrahydro-1H-purin-8-yl)-5-methyl-pyrazol-1-yl]-N-(4-iodophenyl)-acetamide]: the 50% inhibitory concentration (IC50) in assay [1] is 115 nM. For the same compound, the Ki in assay [2] is over 1000 nM.

`CCCn1c(=O)c2[nH]c(-c3cc(C)n(CC(=O)Nc4ccc(F)cc4)n3)nc2n(CCC)c1=O` [Example 5, 2-[3-(2,6-Dioxo-1,3-dipropyl-2,3,6,7-tetrahydro-1H-purin-8-yl)-5-methyl-pyrazol-1-yl]-N-(4-fluoro-phenyl)-acetamide]: the IC50 in assay [1] came to 68 nM. The Ki in assay [2] is over 1000 nM.

On to `CCCn1c(=O)c2[nH]c(-c3cc(C)n(CC(=O)Nc4ccc(OC)cc4)n3)nc2n(CCC)c1=O` [Example 6, 2-[3-(2,6-Dioxo-1,3-dipropyl-2,3,6,7-tetrahydro-1H-purin-8-yl)-5-methyl-pyrazol-1-yl]-N-(4-methoxyphenyl)-acetamide], for which the IC50 in assay [1] was 61 nM. In addition, the Ki in assay [2] is over 1000 nM.

As for `CCCn1c(=O)c2[nH]c(-c3cc(C)n(CC(=O)Nc4ccc(C)c(C)c4)n3)nc2n(CCC)c1=O` [Example 7, 2-[3-(2,6-Dioxo-1,3-dipropyl-2,3,6,7-tetrahydro-1H-purin-8-yl)-5-methyl-pyrazol-1-yl]-N-(3,4-dimethylphenyl)-acetamide], in assay [1], the IC50 came to 200 nM. In addition, in assay [2], the inhibition constant Ki is over 1000 nM.

As to `CCCn1c(=O)c2[nH]c(-c3cc(C)n(CC(=O)Nc4ccc(OC)c(OC)c4)n3)nc2n(CCC)c1=O` [Example 8, 2-[3-(2,6-Dioxo-1,3-dipropyl-2,3,6,7-tetrahydro-1H-purin-8-yl)-5-methyl-pyrazol-1-yl]-N-(3,4-dimethoxyphenyl)-acetamide], the 50% inhibitory concentration (IC50) in assay [1] was 222 nM. The inhibition constant (Ki) in assay [2] is over 1000 nM.

For `CCCn1c(=O)c2[nH]c(-c3ccn(CC(=O)Nc4ccc(Cl)cc4)n3)nc2n(CCC)c1=O` [Example 10, 2-[3-(2,6-Dioxo-1,3-dipropyl-2,3,6,7-tetrahydro-1H-purin-8-yl)-pyrazol-1-yl]-N-(4-chloro-phenyl)-acetamide], the half-maximal inhibitory concentration (IC50) in assay [1] came to 80 nM. Moreover, in assay [2], the inhibition constant Ki was over 1000 nM.

For the compound `CCCn1c(=O)c2[nH]c(-c3cc(C)n(CC(=O)Nc4ccc(C(C)CC)cc4)n3)nc2n(CCC)c1=O` (stereo not shown) [Example 12, 2-[3-(2,6-Dioxo-1,3-dipropyl-2,3,6,7-tetrahydro-1H-purin-8-yl)-5-methyl-pyrazol-1-yl]-N-(4-sec-butylphenyl)-acetamide], the IC50 in assay [1] is over 1000 nM. Moreover, the inhibition constant (Ki) in assay [2] was over 1000 nM.

For `CCCn1c(=O)c2[nH]c(-c3cc(C)n(CC(=O)Nc4cccc(OC)c4)n3)nc2n(CCC)c1=O` [Example 14, 2-[3-(2,6-Dioxo-1,3-dipropyl-2,3,6,7-tetrahydro-1H-purin-8-yl)-5-methyl-pyrazol-1-yl]-N-(3-methoxylphenyl)-acetamide], in assay [1], the IC50 is 266 nM. In addition, the Ki in assay [2] is over 1000 nM.

Consider `CCCn1c(=O)c2[nH]c(-c3cc(C)n(CC(=O)Nc4cccc(Cl)c4)n3)nc2n(CCC)c1=O` [Example 15, 2-[3-(2,6-Dioxo-1,3-dipropyl-2,3,6,7-tetrahydro-1H-purin-8-yl)-5-methyl-pyrazol-1-yl]-N-(3-chlorophenyl)-acetamide], for which the 50% inhibitory concentration (IC50) in assay [1] came out at 106 nM. The Ki in assay [2] is over 1000 nM.

Turning to `CCCn1c(=O)c2[nH]c(-c3cc(C)n(CC(=O)Nc4ccc(Cl)c(Cl)c4)n3)nc2n(CCC)c1=O` [Example 16, 2-[3-(2,6-Dioxo-1,3-dipropyl-2,3,6,7-tetrahydro-1H-purin-8-yl)-5-methyl-pyrazol-1-yl]-N-(3,4-dichlorophenyl)-acetamide], the IC50 in assay [1] turned out to be 188 nM. In addition, the Ki in assay [2] was over 1000 nM.

For the compound `CCCn1c(=O)c2[nH]c(-c3cc(C)n(CC(=O)Nc4ccc(C)cc4)n3)nc2n(CCC)c1=O` [Example 17, 2-[3-(2,6-Dioxo-1,3-dipropyl-2,3,6,7-tetrahydro-1H-purin-8-yl)-5-methyl-pyrazol-1-yl]-N-p-tolyl-acetamide], the IC50 in assay [1] was 212 nM. Also, the inhibition constant Ki in assay [2] was over 1000 nM.

On to `CCCn1c(=O)c2[nH]c(-c3nn(CC(=O)Nc4ccc(Cl)cc4)c(C)c3Cl)nc2n(CCC)c1=O` [Example 18, 2-[4-Chloro-3-(2,6-dioxo-1,3-dipropyl-2,3,6,7-tetrahydro-1H-purin-8-yl)-5-methyl-pyrazol-1-yl]-N-(4-chlorophenyl)-acetamide], for which the concentration for half-maximal inhibition (IC50) in assay [1] was over 1000 nM. In addition, in assay [2], the Ki is over 1000 nM.

Take `CCCn1c(=O)c2[nH]c(-c3nn(CC(=O)Nc4ccc(Cl)cc4)c(C)c3Br)nc2n(CCC)c1=O` [Example 19, 2-[4-Bromo-3-(2,6-dioxo-1,3-dipropyl-2,3,6,7-tetrahydro-1H-purin-8-yl)-5-methyl-pyrazol-1-yl]-N-(4-chlorophenyl)-acetamide]: the concentration for half-maximal inhibition (IC50) in assay [1] was over 1000 nM. Moreover, the Ki in assay [2] was over 1000 nM.

These data come from US7767685B2, “Adenosine A2B receptor antagonists” (King Pharmaceuticals Research and Development, Inc., priority 2006, dated 2010).
